Source: PubChem BioAssay (NCI)
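Step 1: Grow cells in 96-well plates. Step 2: Expose to compound for 48 hours at 5 concentrations. Step 3: Interpolate endpoints linearly; if unreached, use highest concentration. TGI denotes the concentration required for complete inhibition of growth.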

Key:
Assay in all cases: DTP human tumour cell line panel, 48 h
[1] = tested on: NCI-H226 lung
[2] = tested on: HOP-92 NSCLC
[3] = tested on: HL-60(TB) leukemia
[4] = tested on: MOLT-4 leukemia
[5] = tested on: HS 578T breast
[6] = tested on: MCF7 breast
[7] = tested on: NCI/ADR-RES ovarian
[8] = tested on: SK-MEL-2 melanoma
[9] = tested on: MDA-MB-435
[10] = tested on: UO-31 renal
[11] = tested on: UACC-257 melanoma
[12] = tested on: LOX IMVI melanoma
[13] = tested on: SK-MEL-5 melanoma
[14] = tested on: DU-145 prostate
[15] = tested on: NCI-H522 lung
[16] = tested on: SF-295 CNS
[17] = tested on: MALME-3M melanoma
[18] = tested on: KM12 colon
[19] = tested on: 786-0 renal
[20] = tested on: HT29 colon
[21] = tested on: OVCAR-3 ovarian
[22] = tested on: MDA-N
[23] = tested on: HCT-15 colon
[24] = tested on: IGROV1 ovarian
[25] = tested on: SK-MEL-28 melanoma
[26] = tested on: K-562 leukemia
[27] = tested on: A549 NSCLC
[28] = tested on: NCI-H460 lung
[29] = tested on: HCT-116 colon
[30] = tested on: PC-3 prostate
[31] = tested on: SNB-19 CNS
[32] = tested on: M14 melanoma
[33] = tested on: SK-OV-3 ovarian
[34] = tested on: ACHN renal
[35] = tested on: OVCAR-5 ovarian
[36] = tested on: SF-268 CNS
[37] = tested on: SN12C renal
[38] = tested on: A498 renal
[39] = tested on: UACC-62 melanoma
[40] = tested on: MDA-MB-231 breast
[41] = tested on: BT-549 breast
[42] = tested on: TK-10 renal
[43] = tested on: SR leukemia
[44] = tested on: OVCAR-8 ovarian
[45] = tested on: NCI-H23 lung
[46] = tested on: RPMI-8226 leukemia
[47] = tested on: CAKI-1 renal
[48] = tested on: OVCAR-4 ovarian
[49] = tested on: SW-620 colon
[50] = tested on: EKVX NSCLC
[51] = tested on: U251 CNS
[52] = tested on: COLO 205 colon
[53] = tested on: SF-539 CNS
[54] = tested on: CCRF-CEM leukemia
[55] = tested on: HCC-2998 colon
[56] = tested on: T-47D breast
[57] = tested on: RXF 393 renal
[58] = tested on: HOP-62 NSCLC
[59] = tested on: SNB-75 CNS

**Q.** How did the TGI [1] turn out when `COc1ccc(N2C(=O)CSC2c2cc(OC)c(OC)c(OC)c2)cc1` (stereo unspecified) was run?
**A.** > 100 µM

**Q.** What about the TGI [2] of the same molecule?
**A.** > 100 µM

**Q.** What about the TGI [3] of the same molecule?
**A.** 69.8 µM

**Q.** And the TGI [4]?
**A.** > 100 µM

**Q.** What about the TGI [5] of the same molecule?
**A.** > 100 µM

**Q.** What about the TGI [6] of the same molecule?
**A.** > 100 µM

**Q.** What about the TGI [7] of the same molecule?
**A.** 85.6 µM

**Q.** And the TGI [8]?
**A.** > 100 µM

**Q.** And the TGI [9]?
**A.** 85.2 µM

**Q.** And the TGI [10]?
**A.** 27.1 µM

**Q.** And the TGI [11]?
**A.** 28.9 µM

**Q.** And the TGI [12]?
**A.** 92.9 µM

**Q.** And the TGI [13]?
**A.** 87.2 µM

**Q.** What about the TGI [14] of the same molecule?
**A.** 72.2 µM

**Q.** What about the TGI [15] of the same molecule?
**A.** 73.6 µM

**Q.** What about the TGI [16] of the same molecule?
**A.** 71.9 µM

**Q.** What about the TGI [17] of the same molecule?
**A.** 97.7 µM

**Q.** What about the TGI [18] of the same molecule?
**A.** 32.9 µM

**Q.** What about the TGI [19] of the same molecule?
**A.** 48.4 µM

**Q.** And the TGI [20]?
**A.** 57.1 µM

**Q.** And the TGI [21]?
**A.** 64.8 µM

**Q.** And the TGI [22]?
**A.** 55.9 µM

**Q.** What about the TGI [23] of the same molecule?
**A.** 44.4 µM

**Q.** What about the TGI [24] of the same molecule?
**A.** > 100 µM

**Q.** What about the TGI [25] of the same molecule?
**A.** > 100 µM

**Q.** And the TGI [26]?
**A.** > 100 µM

**Q.** And the TGI [27]?
**A.** 83.4 µM

**Q.** And the TGI [28]?
**A.** 63.5 µM

**Q.** And the TGI [29]?
**A.** 33.4 µM

**Q.** What about the TGI [30] of the same molecule?
**A.** > 100 µM

**Q.** And the TGI [31]?
**A.** 80.8 µM

**Q.** And the TGI [32]?
**A.** 57.8 µM

**Q.** And the TGI [33]?
**A.** 71 µM

**Q.** What about the TGI [34] of the same molecule?
**A.** 40.9 µM

**Q.** And the TGI [35]?
**A.** 73.9 µM

**Q.** What about the TGI [36] of the same molecule?
**A.** > 100 µM

**Q.** What about the TGI [37] of the same molecule?
**A.** 65.9 µM

**Q.** And the TGI [38]?
**A.** 55.3 µM

**Q.** What about the TGI [39] of the same molecule?
**A.** 20.9 µM

**Q.** What about the TGI [40] of the same molecule?
**A.** 78.1 µM

**Q.** And the TGI [41]?
**A.** 52.1 µM

**Q.** What about the TGI [42] of the same molecule?
**A.** > 100 µM

**Q.** What about the TGI [43] of the same molecule?
**A.** 51.3 µM

**Q.** What about the TGI [44] of the same molecule?
**A.** > 100 µM

**Q.** What about the TGI [45] of the same molecule?
**A.** > 100 µM

**Q.** And the TGI [46]?
**A.** > 100 µM

**Q.** And the TGI [47]?
**A.** 62.7 µM

**Q.** What about the TGI [48] of the same molecule?
**A.** > 100 µM

**Q.** And the TGI [49]?
**A.** > 100 µM

**Q.** And the TGI [50]?
**A.** > 100 µM

**Q.** What about the TGI [51] of the same molecule?
**A.** 39 µM

**Q.** And the TGI [52]?
**A.** 54.1 µM

**Q.** What about the TGI [53] of the same molecule?
**A.** > 100 µM

**Q.** And the TGI [54]?
**A.** 35.1 µM

**Q.** What about the TGI [55] of the same molecule?
**A.** 39.9 µM

**Q.** With `CN1C(C(=O)Nc2ccccn2)=C(O)c2ccccc2S1(=O)=O` as the molecule, how does the TGI [1] read?
**A.** > 100 µM

**Q.** What about the TGI [3] of the same molecule?
**A.** > 100 µM

**Q.** And the TGI [4]?
**A.** > 100 µM

**Q.** And the TGI [6]?
**A.** > 100 µM

**Q.** And the TGI [7]?
**A.** > 100 µM

**Q.** What about the TGI [8] of the same molecule?
**A.** > 100 µM

**Q.** What about the TGI [9] of the same molecule?
**A.** > 100 µM

**Q.** What about the TGI [10] of the same molecule?
**A.** > 100 µM

**Q.** What about the TGI [56] of the same molecule?
**A.** > 100 µM

**Q.** And the TGI [11]?
**A.** > 100 µM

**Q.** What about the TGI [12] of the same molecule?
**A.** > 100 µM

**Q.** What about the TGI [13] of the same molecule?
**A.** > 100 µM

**Q.** And the TGI [14]?
**A.** > 100 µM

**Q.** And the TGI [15]?
**A.** > 100 µM

**Q.** And the TGI [16]?
**A.** > 100 µM

**Q.** What about the TGI [17] of the same molecule?
**A.** > 100 µM

**Q.** And the TGI [18]?
**A.** > 100 µM

**Q.** What about the TGI [19] of the same molecule?
**A.** > 100 µM

**Q.** And the TGI [57]?
**A.** > 100 µM

**Q.** What about the TGI [20] of the same molecule?
**A.** > 100 µM

**Q.** And the TGI [21]?
**A.** > 100 µM

**Q.** What about the TGI [22] of the same molecule?
**A.** > 100 µM

**Q.** And the TGI [58]?
**A.** > 100 µM

**Q.** And the TGI [23]?
**A.** > 100 µM

**Q.** And the TGI [25]?
**A.** > 100 µM

**Q.** And the TGI [27]?
**A.** > 100 µM

**Q.** What about the TGI [29] of the same molecule?
**A.** > 100 µM

**Q.** What about the TGI [30] of the same molecule?
**A.** > 100 µM

**Q.** And the TGI [31]?
**A.** > 100 µM

**Q.** What about the TGI [32] of the same molecule?
**A.** > 100 µM

**Q.** What about the TGI [33] of the same molecule?
**A.** > 100 µM

**Q.** And the TGI [34]?
**A.** > 100 µM

**Q.** What about the TGI [35] of the same molecule?
**A.** > 100 µM

**Q.** What about the TGI [36] of the same molecule?
**A.** > 100 µM

**Q.** What about the TGI [37] of the same molecule?
**A.** > 100 µM

**Q.** What about the TGI [39] of the same molecule?
**A.** > 100 µM

**Q.** And the TGI [41]?
**A.** > 100 µM

**Q.** And the TGI [42]?
**A.** > 100 µM

**Q.** What about the TGI [43] of the same molecule?
**A.** > 100 µM

**Q.** What about the TGI [44] of the same molecule?
**A.** > 100 µM

**Q.** And the TGI [45]?
**A.** > 100 µM

**Q.** What about the TGI [46] of the same molecule?
**A.** > 100 µM

**Q.** And the TGI [59]?
**A.** > 100 µM

**Q.** What about the TGI [47] of the same molecule?
**A.** > 100 µM

**Q.** And the TGI [48]?
**A.** > 100 µM

**Q.** And the TGI [49]?
**A.** > 100 µM

**Q.** What about the TGI [50] of the same molecule?
**A.** > 100 µM

**Q.** And the TGI [51]?
**A.** > 100 µM

**Q.** And the TGI [52]?
**A.** > 100 µM

**Q.** What about the TGI [53] of the same molecule?
**A.** > 100 µM

**Q.** What about the TGI [54] of the same molecule?
**A.** > 100 µM
